Assay results published in patent US12398375B2, “Methods for improved poxvirus yields” (priority 2018, dated 2025).

How the values were obtained:
[1] = system: vMyx-GFP in human A549 cells; test: MYXV progeny virus titration assay (A549 infection, titrated on RK13 cells); format: cell-based, Myxoma virus; conditions: for levels of progeny virus (MYXV titers): A549 cells
[2] = system: MYXV expressing a GFP reporter gene (vMyx-GFP) in human A549 cells; test: MYXV reporter gene (GFP) expression in human A549 cells, fluorescence microscopy; format: cell-based, Myxoma virus; conditions: human A549 cells pre-treated 1 h with different concentrations; vMyx-GFP MOI 1.0, 0.1 or 0.01; images at 48 h and 72 h post infection
[3] = system: VACV-GFP in human A549 cells; format: cell-based, vaccinia virus
[4] = system: VACV expressing GFP (VACV-GFP) in human A549 cells; format: cell-based, vaccinia virus
HeLa cells = conditions: cited from earlier work
CRM1 = CRM1 (Homo sapiens, UniProt O14980); conditions: reported (Dickmanns et al. 2015); cited from earlier work
Chain of CRM1 (O14980 whole entry): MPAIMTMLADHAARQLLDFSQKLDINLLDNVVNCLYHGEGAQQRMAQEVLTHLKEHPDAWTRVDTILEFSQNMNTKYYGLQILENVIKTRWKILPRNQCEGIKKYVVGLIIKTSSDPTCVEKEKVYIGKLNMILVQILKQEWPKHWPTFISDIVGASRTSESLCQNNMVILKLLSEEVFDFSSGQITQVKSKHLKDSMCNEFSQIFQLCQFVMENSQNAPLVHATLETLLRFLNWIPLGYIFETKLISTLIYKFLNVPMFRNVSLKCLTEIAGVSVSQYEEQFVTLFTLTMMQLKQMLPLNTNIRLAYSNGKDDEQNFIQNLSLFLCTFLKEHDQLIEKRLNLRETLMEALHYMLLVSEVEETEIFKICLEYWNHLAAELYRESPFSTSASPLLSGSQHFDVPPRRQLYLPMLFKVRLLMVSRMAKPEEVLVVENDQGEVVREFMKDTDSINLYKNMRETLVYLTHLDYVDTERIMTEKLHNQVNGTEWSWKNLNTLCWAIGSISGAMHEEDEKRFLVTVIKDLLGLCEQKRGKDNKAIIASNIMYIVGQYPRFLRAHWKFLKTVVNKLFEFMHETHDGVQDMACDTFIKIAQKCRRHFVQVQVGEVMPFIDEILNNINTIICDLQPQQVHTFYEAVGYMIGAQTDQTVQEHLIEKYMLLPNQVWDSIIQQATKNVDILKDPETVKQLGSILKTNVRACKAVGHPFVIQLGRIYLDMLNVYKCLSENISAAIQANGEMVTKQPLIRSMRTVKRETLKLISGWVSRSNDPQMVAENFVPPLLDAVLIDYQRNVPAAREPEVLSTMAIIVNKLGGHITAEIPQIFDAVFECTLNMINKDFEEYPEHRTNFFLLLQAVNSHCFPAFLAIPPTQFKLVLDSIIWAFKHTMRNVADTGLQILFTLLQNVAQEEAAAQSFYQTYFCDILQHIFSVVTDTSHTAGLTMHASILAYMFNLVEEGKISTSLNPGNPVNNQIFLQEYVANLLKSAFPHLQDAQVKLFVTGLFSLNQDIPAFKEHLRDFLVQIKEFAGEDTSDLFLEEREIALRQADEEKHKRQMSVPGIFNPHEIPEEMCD

[5] = vMyx-GFP MOI 0.1 or 0.01, harvested after 48 h or 72 h, FIGS. 6A-6B
[6] = vMyx-GFP MOI 1.0, 0.1 or 0.01, inhibitor 0.001, 0.01 or 0.1 μM, harvested after 48 h, FIGS. 5A-5D

| Compound | levels of progeny virus (MYXV titers) [1, 5] | levels of progeny virus (MYXV titers) [1, 6] | MYXV replication, as indicated by reporter gene expression (GFP fluorescence) [2] | levels of progeny virus (VACV titers) [3] | VACV replication, as indicated by reporter gene expression (GFP fluorescence) [4] | progeny virus production enhancement compared to the other tested drugs ([1]; FIGS. 6A and 6B, MOI 0.1 or 0.01, 48 h or 72 h) | concentration that arrests cells at the G1 phase (HeLa cells) | concentration that shuts down CRM1-mediated nuclear protein export (CRM1) |
| --- | --- | --- | --- | --- | --- | --- | --- | --- |
| CC(/C=C/C1CC=CC(=O)O1)=C\C(C)C/C=C/C(C)=C/C(C)C(=O)C(C)C(O)C(C)C/C(C)=C/C(=O)O (stereo not shown) [Anguinomycin A] | higher levels of progeny virus | higher levels of progeny virus | enhanced MYXV replication | – | – | – | – | – |
| CC(/C=C/C[C@@H](C)/C=C(C)/C=C/[C@@H]1OC(=O)C=C[C@@H]1C)=C\[C@@H](C)C(=O)[C@@H](C)[C@H](O)[C@@H](C)C/C(C)=C/C(=O)O [Leptomycin A] | higher levels of progeny virus | higher levels of progeny virus | enhanced myxoma virus (MYXV) replication | higher levels of progeny virus | enhanced VACV replication | – | – | – |
| CCC(=C/[C@H](C)C/C=C/C(C)=C/[C@@H](C)C(=O)[C@@H](C)[C@H](O)[C@@H](C)C/C(C)=C/C(=O)O)/C=C/[C@@H]1OC(=O)C=C[C@@H]1C [Leptomycin B] | higher levels of progeny virus | higher levels of progeny virus | enhanced MYXV replication | higher levels of progeny virus | enhanced VACV replication | highest progeny virus production enhancement | 50 pg/mL | – |
| Anguinomycin | – | – | – | – | – | – | – | above 10 nM |
| Ratjadone A | higher levels of progeny virus | higher levels of progeny virus | enhanced MYXV replication | – | – | – | – | – |
